Molecules are shown by their SMILES. pIC50: −log10 of the molar value. Some results are limits rather than exact numbers.

In general, pIC50 refers to the negative decadic logarithm of the IC50, by convention in mol/L. Read a high pIC50 as a low IC50.

Data set [1] addresses T1, HMG-CoA reductase (Rattus norvegicus, UniProt P51639).
T1 sequence (P51639 1-887): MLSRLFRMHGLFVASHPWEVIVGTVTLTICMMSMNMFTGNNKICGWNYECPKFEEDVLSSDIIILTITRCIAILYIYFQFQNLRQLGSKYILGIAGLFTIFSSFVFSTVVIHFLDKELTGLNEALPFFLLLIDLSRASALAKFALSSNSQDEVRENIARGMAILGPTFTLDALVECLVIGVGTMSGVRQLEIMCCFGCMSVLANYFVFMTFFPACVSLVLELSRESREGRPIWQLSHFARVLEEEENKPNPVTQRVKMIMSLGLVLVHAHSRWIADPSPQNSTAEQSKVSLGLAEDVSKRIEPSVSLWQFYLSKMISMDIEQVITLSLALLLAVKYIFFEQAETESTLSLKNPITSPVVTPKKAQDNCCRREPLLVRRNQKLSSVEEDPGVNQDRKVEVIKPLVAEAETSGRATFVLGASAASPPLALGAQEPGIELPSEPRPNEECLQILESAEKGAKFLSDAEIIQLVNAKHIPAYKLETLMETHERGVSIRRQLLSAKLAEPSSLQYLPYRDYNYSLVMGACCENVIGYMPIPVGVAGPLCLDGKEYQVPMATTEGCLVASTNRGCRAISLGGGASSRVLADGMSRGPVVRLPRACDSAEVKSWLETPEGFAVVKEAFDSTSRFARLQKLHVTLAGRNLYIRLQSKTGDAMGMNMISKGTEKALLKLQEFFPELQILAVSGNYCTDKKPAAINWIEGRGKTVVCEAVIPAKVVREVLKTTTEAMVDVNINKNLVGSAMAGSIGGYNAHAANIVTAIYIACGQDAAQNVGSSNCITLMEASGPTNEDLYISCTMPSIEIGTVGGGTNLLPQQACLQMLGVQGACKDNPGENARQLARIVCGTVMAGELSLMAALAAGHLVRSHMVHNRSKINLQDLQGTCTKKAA
Nature of the data set: inhibition of HMG-CoA reductase activity on solubilized enzyme preparations from rat liver microsomes. It is filed as biochemical. Conditions: solubilized rat liver microsomal enzyme; mean of 3 parallel samples; optically pure compounds. A general note: Liver microsomes are vesicles of endoplasmic reticulum, rich in cytochrome P450 enzymes.

Data set [2] concerns cholesterol biosynthesis in HEP G2 cells. Briefly: inhibition of cholesterol biosynthesis in HEP G2 cell cultures by incorporation of 14C-precursor (14C-acetate) in cholesterol. It counts as cell-based. The conditions noted are these: Homo sapiens, HepG2, 1 hour preincubation, 3 hours with 14C-acetate. Here is the method: In addition, the inhibition of cholesterol biosynthesis in cell cultures was tested with selected compounds by the incorporation of ^14 C-precursor in cholesterol.
Monolayers of HEP G2 cells in Lipoprotein-free nutrient medium were incubated with various concentrations of the test substances for 1 hour. After addition of the ^14 C-labeled precursor sodium ^14 C-acetate, the incubation was continued for 3 hours. Then ^3 H-cholesterol was added as internal standard, and some of the cells were hydrolyzed with alkali. The lipids were extracted from the hydrolyzed cells using chloroform/methanol. Carrier cholesterol was added to this lipid mixture which was then subjected to preparative thin-layer chromatography, the cholesterol band was visualized with iodine vapor and then isolated, and the amount of ^14 C-cholesterol formed from the ^14 C-precursor was determined by scintigraphy. Cellular protein was determined in an aliquot of the cells, so that it is possible to calculate the amount of ^14 C-cholesterol formed from the ^14 C-precursor per mg of cellular protein in unit time. The solvent control is used for comparison with the inhibitory effect of an added test product, so that the inhibition of cholesterol biosynthesis at a particular molar concentration of the test product in the medium can be stated. The absence of cell damage due to the action of the products was confirmed in an aliquot of the cell culture by the morphology (light microscope). The IC50 values of the test products are stated in mol/l (in Table II), and their relative potencies are compared with mevinolin sodium salt and mevinolin lactone (comparison of the IC50 values).

Another data set has as its system liver enzyme levels. Briefly: liver enzyme levels in the rabbit test. It counts as in vivo. The conditions noted are these: 10 mg/kg/day by gavage; rabbits. Here is the method:
(§1) The cholesterol-lowering efficacy was investigated in the following test on rabbits Normolipidemic male New Zealand rabbits (weight 3-3.5 kg, 4-6 animals per test group) received the test compounds suspended in a 1% strength aqueous carboxymethylcellulose solution (®Tylose) by gavage each day in the morning; the control group received only Tylose solution. Venous blood was taken every 3 to 4 days 20 hours after the oral administration of the solutions. The total cholesterol content in these samples was determined enzymatically using the Boehringer Mannheim assay kit (CHOD-PAP-high performance method). The serum cholesterol level in the group treated with test compounds was compared with that in the control group. The treatment period was followed by a period in which the test compounds were no longer administered.
The serum cholesterol levels returned to their initial value within 3 days after discontinuation of the product (after 10 days).

The next data set deals with total serum cholesterol. Briefly: cholesterol-lowering efficacy in normolipidemic male New Zealand rabbits. It counts as in vivo, rabbit. How it is done: as §1
In data set [3] the test system is HMG-CoA reductase. Conditions: Endo et al. 1976; Brown et al. 1976; cited from earlier work.

As to `CC(C)c1nc(-c2ccccc2)nc(-c2ccc(F)cc2)c1/C=C/[C@@H](O)[C@H](F)[C@@H](O)CC(=O)O`, the pIC50 against HMG-CoA reductase [1] is 7.44. For the molecule `CC(C)c1nc(-c2ccccc2)cc(-c2ccc(F)cc2)c1/C=C/[C@H]1OC(=O)C[C@H](O)[C@H]1F` [Example 34, 3(S),5(R)-Dihydorxy-4(R)-fluoro-7-(2-isopropyl-4-parafluorophenyl-6-phenyl-3-pyridyl)hept-6E-enoic acid lactone], the pIC50 in data set [2] is 6.96. Besides, the “changes in the liver enzyme levels” value in the data set with liver enzyme levels is listed as “without eliciting abnormal or pathological changes in the liver enzyme levels”. Moreover, the “time within which the 40% lowering of total cholesterol was reached” value in the data set with total serum cholesterol (10 mg/kg/day by gavage) is listed as at most 3 days. The “lowering of total cholesterol” value in the data set on total serum cholesterol (10 mg/kg/day by gavage in 1% carboxymethylcellulose, within 3 days, vs control group) was 40%. In addition, the “course of total cholesterol lowering during administration” value in the data set with total serum cholesterol (10 mg/kg/day by gavage, 10 days) was “remained constant throughout the administration”. In addition, the “time for serum cholesterol levels to return to initial value after discontinuation” value with total serum cholesterol (10 mg/kg/day by gavage, discontinuation after 10 days) is listed as at most 3 days.

Molecule `CC(C)c1nc(-c2ccccc2)nc(-c2ccc(F)cc2)c1/C=C/[C@H]1OC(=O)C[C@H](O)[C@H]1F` [Example 38, 3(S),5(R)-dihydroxy-4(R)-fluoro-7-[6-parafluorophenyl-4-isopropyl-2-phenyl-1,3-diazin-5-yl]hept-6E-enoic acid lactone] had a pIC50 in data set [2] of 6.60. Take `CC[C@H](C)C(=O)O[C@H]1CCC=C2C=C[C@H](C)[C@H](CC[C@@H]3C[C@@H](O)CC(=O)O3)[C@H]21` [compactin]: the “inhibition of HMG-CoA reductase (in words)” value in the data set on HMG-CoA reductase [3] is recorded as “potent competitive inhibitor of HMG-CoA reductase”. At HMG-CoA reductase [1], `CC(C)c1nc(-c2ccccc2)cc(-c2ccc(F)cc2)c1/C=C/[C@@H](O)[C@H](F)[C@@H](O)CC(=O)O` had a pIC50 of 8.07. The same measure, in the same setting: next, `CC(C)c1nc(-c2ccccc2)cc(-c2ccc(F)cc2)c1CC[C@@H](O)[C@@H](F)[C@@H](O)CC(=O)O`: 7.70.

As for `CCCCc1cc(Cl)cc(Cl)c1/C=C/[C@H]1OC(=O)C[C@H](O)[C@H]1F` [Example 18, 7-(2-n-Butyl-4,6-dichlorophenyl)-3(S),5(R)-dihydroxy-4(R)-fluoro-E-hept-6-enoic acid lactone], the pIC50 was 6.49 in data set [2] and 7.49 against HMG-CoA reductase [1]. The matching figures for `O=C1C[C@H](O)[C@@H](F)[C@@H](CSc2c(Cl)cc(Cl)cc2C(c2ccc(F)cc2)c2ccc(F)cc2)O1` [Example 12, 6-(2,4-Dichloro-6-(bisparafluorophenylmethyl)phenylthio)-3(R),5(S)-dihydroxy-4(R)-fluorohexanoic acid lactone]: 5.26 and 5.70. `CC(C)c1cc(-c2ccccc2)cc(-c2ccc(F)cc2)c1/C=C/[C@@H](O)[C@H](F)[C@@H](O)CC(=O)O` showed a pIC50 at HMG-CoA reductase [1] of 8.20. Molecule `Cc1cc(C)c(/C=C/[C@@H](O)[C@H](F)[C@@H](O)CC(=O)O)c(-c2ccc(F)cc2)c1` showed a pIC50 on HMG-CoA reductase [1] of 7.01.

Source of the values: patent publication US4898868A, “3-demethyl-4-fluoromevalonic acid derivatives, a process for the preparation thereof, pharmaceutical products based on these compounds, the use thereof, and intermediates” (Hoechst Aktiengesellschaft, priority 1987, dated 1990).
